Experiment [1] deals with Hepatitis C virus. Nature of the experiment: Antiviral activity against HCV Con1 GT1b by replicon assay. It is filed as functional, organism-based, Hepacivirus hominis. The following applies: Hepatitis C virus, Con1 GT1b. On the technique in general: In antiviral work, replicon cells carry a viral genome segment that copies itself.
Experiment [2] relates to Hepatitis C virus. Nature of the experiment: Antiviral activity against HCV Con1 GT1b at 100 uM by replicon assay. The experiment is classed as functional, Hepacivirus hominis.

pIC50: −log10 of the molar value.

Broadly, the pIC50 is the negative decadic logarithm of the IC50, by convention in mol/L. In general, inhibition refers to the share of the control response that was lost under treatment.

In turn, `CCOC(=O)C[C@H](NP(=O)(OC[C@@]1(N=[N+]=[N-])O[C@@H](n2ccc(N)nc2=O)[C@H](O)[C@@H]1O)Oc1ccccc1)C(=O)OCC` (stereo partly specified) gave a negative logarithm of the IC50 (pIC50) in the experiment on Hepatitis C virus [1] of 5.36. In addition, testing at 100 µM with Hepatitis C virus [2] gave an inhibition of 88%.
The compound `CCOC(=O)C1(NP(=O)(OC[C@@]2(N=[N+]=[N-])O[C@@H](n3ccc(N)nc3=O)[C@H](O)[C@@H]2O)Oc2ccccc2)CCCC1` (stereo partly specified) gave a negative-log IC50 (pIC50) in the experiment on Hepatitis C virus [1] of 4.25. This compound returned an inhibition at 100 µM in the experiment on Hepatitis C virus [2] of 69%.
The like results for `CC(C)(C)OC(=O)[C@H](Cc1ccccc1)NP(=O)(OC[C@@]1(N=[N+]=[N-])O[C@@H](n2ccc(N)nc2=O)[C@H](O)[C@@H]1O)Oc1ccccc1` (stereo partly specified) were, in that order, 5.17 and 84%.

The record behind these values is ChEMBL document CHEMBL1152361, “The application of phosphoramidate ProTide technology to the potent anti-HCV compound 4'-azidocytidine (R1479)” (Bioorg Med Chem Lett, 2009).
